Where “and” joins values, the source holds several entries; their conditions need not be identical. Identical values can stand only once. Entries after “also recorded” stand apart in the source; their conditions may differ.
How the values were obtained:
[1] = system: polymicrobial peritoneal sepsis induced by CLP; assay: Cecal ligation and puncture (CLP) sepsis; format: in vivo, mouse (C57BL/6); details: for circulating pro-inflammatory cytokines after CLP: pre-treatment
Experimental: (§1) Cecal ligation and puncture (CLP) was performed as described elsewhere (Rittirsch et al., 2009 Nature Protocols, 4:31-6). Briefly, six-to-eight week old female C57BL/6 mice were anesthetized and following abdominal incision, the cecum was ligated at about 14 the distance from the luminal entry to its tip. The ligated cecum was punctured through and through with a 22 G needle at ½ and ¾ the distance from the luminal entry to its tip. A small amount of the cecal content was gently pushed out of the four openings into the peritoneum. Subsequently, the abdominal muscles were sutured and the skin was closed with two staples. Five hundred microliters of saline were immediately injected subcutaneously to the mice. For the groups treated with antibiotics, imipenem (Sigma) was injected subcutaneously at 25 mg/kg starting from 20 hours after CLP, with a schedule of twice a day on day one and once a day thereafter for 10 days. Human ANP (Sigma) was dissolved in saline, loaded in mini-osmotic pumps (ALZET) with a release rate of 12 μg/day and implanted subcutaneously in the back of mice 12 hours before the CLP, with pumps loaded with saline serving as controls. Metyrosine was freshly dissolved in PBS and injected IP at 60 mg/kg/day for three days before the CLP. Twenty minutes before the CLP, metyrosine was injected at 60 mg/kg IP into the right side. The control groups were injected with PBS. For the following 4 days, metyrosine was injected at 30 mg/kg/day IP into the right side. Hydration of mice was supported by daily subcutaneous injection of 0.5 ml saline.
as §1, with “CLP” for “Cecal ligation and puncture (CLP)”, “(see, e.g., Rittirsch” for “(Rittirsch”, “2008 Rev Immunol 8:776-787).” for “2009 Nature Protocols, 4:31-6).”, “6-8 weeks” for “six-to-eight week”, “¼” for “14”, “days.” for “days. Human ANP (Sigma) was dissolved in saline, loaded in mini-osmotic pumps (ALZET) with a release rate of 12 μg/day and implanted subcutaneously in the back of mice 12 hours before the CLP, with pumps loaded with saline serving as controls.”

[2] = system: Raji-bearing NSGS mice with low tumour burden treated with hCART19; assay: hCART19 treatment of Raji-bearing NSGS mice, low tumour burden; format: in vivo, mouse (NSGS); details: for hCART19-induced catecholamines and human and mouse cytokines: metyrosine IP or ANP by osmotic pump; for prevention of CRS (mouse cytokines IL-6, KC, MIP-2): with hCART19
Excerpt: Six to eight weeks old female NSG-SGM3 (NSGS) mice (NOD.Cg-Prkdcscid Il2rgtm1WjlTg (CMV-IL3, CSF2, KITLG) 1Eav/MloySzJ, Stock #013062) were purchased from the Jackson Laboratory. Raji cells were transfected with a luciferase construct via lentivirus to create Raji-luc cells. NSGS is a triple transgenic strain expressing human IL3, GM-CSF and SCF combine the features of the highly immunodeficient NOD scid gamma (NSG) mouse. One day before the injection of Raji cells, mice were irradiated at a dose of 2 Gy in a CIXD Xstahl device. In high tumor burden experiments in FIG. 5, 10^6 Raji-luc cells were injected IV via tail vein. Six days later, tumor loads were assessed using a Xenogen instrument and 15×10^6 hCART19 cells or untransduced T-cells were injected IV. In low tumor burden experiments in FIG. 6, 2×10^5 Raji-luc cells were injected IV via tail vein. Four days later, tumor loads were assessed using a Xenogen instrument and 15×10^6 hCART19 cells were injected IV. Metyrosine was injected IP at 60 mg/kg/day for three days before the hCART19 injection. On the day of CART19 injection, a fourth dose of 60 mg/kg was given IP and the mice were subsequently injected four more times at daily intervals at 30 mg/kg.

Structure (SMILES) | circulating pro-inflammatory cytokines after CLP ([1]; 24 hours after CLP) | survival after CLP ([1]; ANP by osmotic pump implanted 12 hours before CLP) | pathologic examination (peritoneum, lungs, liver) ([1]; ANP pre-treated, 24 hours after CLP) | hCART19-induced catecholamines and human and mouse cytokines ([2]; low tumour burden) | prevention of CRS (mouse cytokines IL-6, KC, MIP-2) [2] | mice surviving CLP (acute phase) ([1]; metyrosine IP pre-treatment) | fraction of mice surviving CLP ([1]; metyrosine pre-treatment plus imipenem from 20 hours after CLP) | animals with tumors eradicated (BLI below 10^6), day 6 ([2]; hCART19 plus metyrosine) | animals with tumors eradicated (BLI below 10^6), day 19 ([2]; hCART19 plus metyrosine) | reduction of lymphoma burden within one week versus hCART19 controls ([2]; hCART19 plus metyrosine, BLI) | long-term survival ([2]; low tumour burden) [%]
CC[C@H](C)[C@@H]1NC(=O)[C@H](CCCNC(=N)N)NC(=O)[C@H](CC(=O)O)NC(=O)[C@H](CCSC)NC(=O)[C@H](CCCNC(=N)N)NC(=O)CNC(=O)CNC(=O)[C@H](Cc2ccccc2)NC(=O)[C@@H](NC(=O)[C@H](CO)NC(=O)[C@H](CO)NC(=O)[C@H](CCCNC(=N)N)NC(=O)[C@H](CCCNC(=N)N)NC(=O)[C@H](CC(C)C)NC(=O)[C@@H](N)CO)CSSC[C@@H](C(=O)N[C@@H](CC(N)=O)C(=O)N[C@@H](CO)C(=O)N[C@@H](Cc2ccccc2)C(=O)N[C@@H](CCCNC(=N)N)C(=O)N[C@@H](Cc2ccc(O)cc2)C(=O)O)NC(=O)CNC(=O)[C@H](CC(C)C)NC(=O)CNC(=O)[C@H](CO)NC(=O)[C@H](CCC(N)=O)NC(=O)[C@H](C)NC(=O)CNC1=O [ANP, atrial natriuretic peptide] | greatly reduced | almost half of the animals survived the acute phase | less peritoneal inflammation, pulmonary septal thickening, and hepatic inflammation; also recorded: lower or absent pulmonary septal thickening and vacuolization | abrogated | effective at preventing CRS | – | – | – | – | – | –
C[C@](N)(Cc1ccc(O)cc1)C(=O)O [metyrosine, α-methyl-tyrosine] | substantially reduced | – | – | reduced | effective at preventing CRS | 20% and 22% | > ⅔ | 6 out of 10 | 4 out of 10 | significantly more so | 40
